{"source": "ChEMBL document CHEMBL1201862", "about": "“PubChem BioAssay data set” (2004)", "key": {"[1]": {"biological_target": "T1, Corticotropin-releasing factor receptor 2/Corticotropin-releasing factor-binding protein (Homo sapiens, UniProt P24387+Q13324)", "T1 sequence (Q13324 whole entry)": "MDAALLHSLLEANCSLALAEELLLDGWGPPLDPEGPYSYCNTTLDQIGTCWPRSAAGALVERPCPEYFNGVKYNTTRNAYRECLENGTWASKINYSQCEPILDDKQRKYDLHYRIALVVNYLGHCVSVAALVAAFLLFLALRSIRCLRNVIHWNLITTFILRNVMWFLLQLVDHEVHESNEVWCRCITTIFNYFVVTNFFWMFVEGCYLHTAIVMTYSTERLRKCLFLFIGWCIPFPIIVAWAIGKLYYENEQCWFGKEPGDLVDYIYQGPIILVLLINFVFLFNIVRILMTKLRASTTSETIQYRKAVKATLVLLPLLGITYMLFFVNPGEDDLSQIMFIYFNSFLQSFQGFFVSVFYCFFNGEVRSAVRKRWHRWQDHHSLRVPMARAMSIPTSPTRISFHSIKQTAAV", "T1 sequence (P24387 whole entry)": "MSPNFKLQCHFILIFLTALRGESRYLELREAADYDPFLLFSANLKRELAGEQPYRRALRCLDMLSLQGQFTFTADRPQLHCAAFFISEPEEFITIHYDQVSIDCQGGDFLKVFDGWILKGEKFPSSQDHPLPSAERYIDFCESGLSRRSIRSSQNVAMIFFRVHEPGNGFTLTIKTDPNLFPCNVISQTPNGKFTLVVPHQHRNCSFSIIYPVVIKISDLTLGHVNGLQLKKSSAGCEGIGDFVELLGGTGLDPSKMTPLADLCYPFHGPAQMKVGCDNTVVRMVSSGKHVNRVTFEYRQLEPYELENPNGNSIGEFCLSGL", "assay": "activators of CRF receptor 2 with binding protein – uHTS hits, confirmation (AID 602473)", "assay_type": "functional", "settings": "read-out: EC50_Mean"}, "[2]": {"biological_target": "T1, Corticotropin-releasing factor receptor 2/Corticotropin-releasing factor-binding protein", "assay": "Dose Response confirmation of uHTS hits for small molecule antagonists of the CRF-binding protein and CRF-R2 receptor complex.", "assay_type": "functional", "settings": "read-out: IC50_Mean"}, "[3]": {"biological_target": "Nuclear receptor subfamily 5 group A member 2 (Homo sapiens, UniProt O00482)", "sequence (O00482 whole entry)": "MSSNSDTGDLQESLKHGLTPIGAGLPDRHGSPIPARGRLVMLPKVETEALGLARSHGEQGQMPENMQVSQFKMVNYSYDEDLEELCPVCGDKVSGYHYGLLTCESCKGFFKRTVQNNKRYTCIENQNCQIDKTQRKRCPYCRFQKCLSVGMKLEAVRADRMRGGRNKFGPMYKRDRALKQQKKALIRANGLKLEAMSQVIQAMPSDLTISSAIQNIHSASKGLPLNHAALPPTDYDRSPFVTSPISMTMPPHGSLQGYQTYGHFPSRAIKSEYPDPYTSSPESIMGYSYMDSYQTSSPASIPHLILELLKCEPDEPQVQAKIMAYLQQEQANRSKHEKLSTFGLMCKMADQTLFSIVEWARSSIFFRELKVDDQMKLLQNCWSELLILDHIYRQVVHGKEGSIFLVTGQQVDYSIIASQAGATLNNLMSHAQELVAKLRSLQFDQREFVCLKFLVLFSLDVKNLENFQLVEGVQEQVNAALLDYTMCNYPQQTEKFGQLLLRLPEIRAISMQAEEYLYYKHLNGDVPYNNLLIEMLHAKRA", "assay_type": "functional, cell-based"}, "Steroidogenic factor 1": {"biological_target": "Steroidogenic factor 1 (Homo sapiens, UniProt Q13285)", "sequence (Q13285 whole entry)": "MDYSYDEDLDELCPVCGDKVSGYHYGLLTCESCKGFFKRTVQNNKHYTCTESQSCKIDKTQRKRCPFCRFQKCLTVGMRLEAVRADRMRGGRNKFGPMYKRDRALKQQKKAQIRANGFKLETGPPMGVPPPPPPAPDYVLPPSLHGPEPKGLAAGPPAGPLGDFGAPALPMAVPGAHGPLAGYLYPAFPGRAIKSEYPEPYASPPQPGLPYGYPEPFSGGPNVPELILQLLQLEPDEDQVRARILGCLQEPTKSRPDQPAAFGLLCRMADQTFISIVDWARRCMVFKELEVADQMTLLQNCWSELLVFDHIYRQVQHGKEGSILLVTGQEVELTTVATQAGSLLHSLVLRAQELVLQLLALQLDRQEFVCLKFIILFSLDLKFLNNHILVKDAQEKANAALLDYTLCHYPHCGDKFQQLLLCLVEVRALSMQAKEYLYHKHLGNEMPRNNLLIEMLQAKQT", "assay": "Counterscreen for inverse agonists of the liver receptor homolog-1 (LRH-1; NR5A2): Luminescence-based cell-based high throughput dose response assay to identify inverse agonists of the Steroidogenic Factor 1 Nuclear Receptor (SF1; NR5A1).", "assay_type": "functional"}, "Leucine aminopeptidase": {"biological_target": "T2, Leucine aminopeptidase (Plasmodium falciparum 3D7, UniProt Q8IL11)", "T2 sequence (Q8IL11 whole entry)": "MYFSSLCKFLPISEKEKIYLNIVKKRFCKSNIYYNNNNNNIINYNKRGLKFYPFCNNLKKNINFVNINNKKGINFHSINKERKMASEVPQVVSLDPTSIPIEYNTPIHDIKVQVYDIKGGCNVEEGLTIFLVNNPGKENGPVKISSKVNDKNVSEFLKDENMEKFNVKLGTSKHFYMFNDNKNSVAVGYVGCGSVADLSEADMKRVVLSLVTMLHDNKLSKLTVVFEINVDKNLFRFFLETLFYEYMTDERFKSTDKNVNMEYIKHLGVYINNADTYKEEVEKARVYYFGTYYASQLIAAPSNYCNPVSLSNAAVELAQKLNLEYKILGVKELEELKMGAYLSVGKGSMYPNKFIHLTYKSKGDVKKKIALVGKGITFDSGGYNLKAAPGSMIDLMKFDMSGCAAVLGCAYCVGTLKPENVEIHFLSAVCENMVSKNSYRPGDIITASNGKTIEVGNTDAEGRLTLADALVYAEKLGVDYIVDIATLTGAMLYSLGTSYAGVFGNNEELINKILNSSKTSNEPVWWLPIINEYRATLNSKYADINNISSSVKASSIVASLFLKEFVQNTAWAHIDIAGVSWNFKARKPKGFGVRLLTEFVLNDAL", "assay": "P. falciparum M17LAP inhibitors, primary screen, biochemical, fluorogenic H-Leu-NHMec substrate, 1536-well (AID 1619)", "assay_type": "functional"}, "[4]": {"assay": "StAR promoter reporter inhibition counter-screen, dose response, counter-screen for LRH-1 inverse agonist project, cell-based, luminescence, luciferase reporter (AID 651969)", "assay_type": "functional"}, "[5]": {"biological_target": "T3, Probable nicotinate-nucleotide adenylyltransferase (Staphylococcus aureus (strain N315), UniProt P65502)", "T3 sequence (P65502 whole entry)": "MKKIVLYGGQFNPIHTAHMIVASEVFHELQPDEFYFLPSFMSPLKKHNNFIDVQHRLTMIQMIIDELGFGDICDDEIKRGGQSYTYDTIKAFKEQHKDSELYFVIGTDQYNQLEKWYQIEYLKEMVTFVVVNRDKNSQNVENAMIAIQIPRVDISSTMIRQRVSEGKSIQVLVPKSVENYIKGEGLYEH", "assay_type": "functional, Staphylococcus aureus subsp. aureus N315"}, "[6]": {"biological_target": "T3, Probable nicotinate-nucleotide adenylyltransferase", "assay_type": "functional, Staphylococcus aureus subsp. aureus N315", "settings": "read-out: IC50_Mean"}, "Genome polyprotein": {"biological_target": "Genome polyprotein (dengue virus type 2, UniProt P29990)", "assay": "Dengue-2 NS5 methyltransferase inhibitors, primary screen, biochemical, confirmation dose response (AID 588689)", "assay_type": "functional"}, "[7]": {"biological_target": "Peroxisome proliferator-activated receptor gamma/Nuclear receptor coactivator 3 (Homo sapiens, UniProt P37231)", "assay_type": "functional"}, "[8]": {"biological_target": "T4, Tyrosine-protein phosphatase non-receptor type 22 (Homo sapiens, UniProt Q9Y2R2)", "T4 sequence (Q9Y2R2 whole entry)": "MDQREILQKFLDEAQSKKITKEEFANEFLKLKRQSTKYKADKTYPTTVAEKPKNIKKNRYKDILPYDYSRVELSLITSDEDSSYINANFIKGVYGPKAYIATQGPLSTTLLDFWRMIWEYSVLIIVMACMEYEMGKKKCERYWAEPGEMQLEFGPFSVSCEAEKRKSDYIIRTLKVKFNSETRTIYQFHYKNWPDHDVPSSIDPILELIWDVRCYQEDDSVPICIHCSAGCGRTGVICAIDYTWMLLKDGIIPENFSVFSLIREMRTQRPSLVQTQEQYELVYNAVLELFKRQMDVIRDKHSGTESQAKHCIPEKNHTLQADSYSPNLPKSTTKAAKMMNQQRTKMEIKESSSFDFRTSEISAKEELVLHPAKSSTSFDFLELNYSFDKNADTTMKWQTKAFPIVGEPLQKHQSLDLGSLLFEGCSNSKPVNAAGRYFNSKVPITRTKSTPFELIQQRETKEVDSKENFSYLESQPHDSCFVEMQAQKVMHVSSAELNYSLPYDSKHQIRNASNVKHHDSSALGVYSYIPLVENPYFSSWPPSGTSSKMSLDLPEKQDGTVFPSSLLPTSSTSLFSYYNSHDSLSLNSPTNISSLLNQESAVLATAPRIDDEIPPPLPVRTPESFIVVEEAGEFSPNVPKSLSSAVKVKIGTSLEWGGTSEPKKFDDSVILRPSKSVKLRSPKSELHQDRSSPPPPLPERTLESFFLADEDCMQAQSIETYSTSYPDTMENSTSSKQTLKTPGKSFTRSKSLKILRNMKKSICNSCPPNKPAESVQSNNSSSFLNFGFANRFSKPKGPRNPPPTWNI", "assay": "LYP phosphatase inhibition for selectivity, dose response, selectivity assay for LMPTP inhibitor project, biochemical, fluorescence, LYP catalytic domain (AID 652006)", "assay_type": "functional", "settings": "read-out: IC50_Mean"}, "[9]": {"assay": "growth suppression of PTEN-null colon cells, dose response, cell-based, HCT116 PTEN knockout (AID 1047);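 also: cells exposed to compound for 60 hours before readout; potency for loss of cell viability measured by luminescence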", "assay_type": "functional"}, "[10]": {"biological_target": "T5, Carboxy-terminal domain RNA polymerase II polypeptide A small phosphatase 1 (Homo sapiens, UniProt Q9GZU7)", "T5 sequence (Q9GZU7 whole entry)": "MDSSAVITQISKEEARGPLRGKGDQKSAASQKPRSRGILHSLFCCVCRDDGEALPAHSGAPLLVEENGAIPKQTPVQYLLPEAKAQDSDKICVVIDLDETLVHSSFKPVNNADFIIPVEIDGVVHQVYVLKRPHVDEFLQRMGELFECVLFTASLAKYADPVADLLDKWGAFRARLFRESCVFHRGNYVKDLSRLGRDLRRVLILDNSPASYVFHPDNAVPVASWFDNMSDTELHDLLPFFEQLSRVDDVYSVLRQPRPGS", "assay": "inhibitors of CTDSP1, concentration-response testing, biochemical assay, absorbance-based, actives from ultra-high-throughput screening (AID 540297)", "assay_type": "functional"}, "[11]": {"biological_target": "T6, Low molecular weight phosphotyrosine protein phosphatase (Homo sapiens, UniProt P24666)", "T6 sequence (P24666 whole entry)": "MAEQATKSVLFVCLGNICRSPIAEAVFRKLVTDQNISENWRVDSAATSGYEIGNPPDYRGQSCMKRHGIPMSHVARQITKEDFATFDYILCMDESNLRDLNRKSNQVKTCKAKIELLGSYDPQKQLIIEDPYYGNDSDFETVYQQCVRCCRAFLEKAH", "assay_type": "functional", "settings": "read-out: IC50_Mean"}, "[12]": {"biological_target": "Peroxisome proliferator-activated receptor gamma/Nuclear receptor coactivator 1 (Homo sapiens, UniProt P37231)", "assay_type": "functional"}, "[13]": {"biological_target": "Peroxisome proliferator-activated receptor gamma/Nuclear receptor coactivator 2 (Homo sapiens, UniProt P37231)", "sequence (P37231 whole entry)": "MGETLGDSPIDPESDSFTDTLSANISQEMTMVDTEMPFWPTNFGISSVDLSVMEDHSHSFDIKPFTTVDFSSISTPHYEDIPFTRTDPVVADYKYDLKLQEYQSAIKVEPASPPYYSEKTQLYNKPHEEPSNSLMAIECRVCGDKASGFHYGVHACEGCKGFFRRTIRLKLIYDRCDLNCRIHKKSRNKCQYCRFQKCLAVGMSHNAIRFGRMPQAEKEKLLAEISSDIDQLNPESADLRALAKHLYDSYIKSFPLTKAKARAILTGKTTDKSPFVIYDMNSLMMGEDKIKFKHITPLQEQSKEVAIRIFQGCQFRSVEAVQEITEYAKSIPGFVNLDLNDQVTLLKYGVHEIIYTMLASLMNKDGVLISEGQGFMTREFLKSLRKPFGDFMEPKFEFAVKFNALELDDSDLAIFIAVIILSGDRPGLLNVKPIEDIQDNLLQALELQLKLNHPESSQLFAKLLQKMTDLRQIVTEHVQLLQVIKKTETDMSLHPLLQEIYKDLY", "sequence (Q15596 whole entry, further chain)": "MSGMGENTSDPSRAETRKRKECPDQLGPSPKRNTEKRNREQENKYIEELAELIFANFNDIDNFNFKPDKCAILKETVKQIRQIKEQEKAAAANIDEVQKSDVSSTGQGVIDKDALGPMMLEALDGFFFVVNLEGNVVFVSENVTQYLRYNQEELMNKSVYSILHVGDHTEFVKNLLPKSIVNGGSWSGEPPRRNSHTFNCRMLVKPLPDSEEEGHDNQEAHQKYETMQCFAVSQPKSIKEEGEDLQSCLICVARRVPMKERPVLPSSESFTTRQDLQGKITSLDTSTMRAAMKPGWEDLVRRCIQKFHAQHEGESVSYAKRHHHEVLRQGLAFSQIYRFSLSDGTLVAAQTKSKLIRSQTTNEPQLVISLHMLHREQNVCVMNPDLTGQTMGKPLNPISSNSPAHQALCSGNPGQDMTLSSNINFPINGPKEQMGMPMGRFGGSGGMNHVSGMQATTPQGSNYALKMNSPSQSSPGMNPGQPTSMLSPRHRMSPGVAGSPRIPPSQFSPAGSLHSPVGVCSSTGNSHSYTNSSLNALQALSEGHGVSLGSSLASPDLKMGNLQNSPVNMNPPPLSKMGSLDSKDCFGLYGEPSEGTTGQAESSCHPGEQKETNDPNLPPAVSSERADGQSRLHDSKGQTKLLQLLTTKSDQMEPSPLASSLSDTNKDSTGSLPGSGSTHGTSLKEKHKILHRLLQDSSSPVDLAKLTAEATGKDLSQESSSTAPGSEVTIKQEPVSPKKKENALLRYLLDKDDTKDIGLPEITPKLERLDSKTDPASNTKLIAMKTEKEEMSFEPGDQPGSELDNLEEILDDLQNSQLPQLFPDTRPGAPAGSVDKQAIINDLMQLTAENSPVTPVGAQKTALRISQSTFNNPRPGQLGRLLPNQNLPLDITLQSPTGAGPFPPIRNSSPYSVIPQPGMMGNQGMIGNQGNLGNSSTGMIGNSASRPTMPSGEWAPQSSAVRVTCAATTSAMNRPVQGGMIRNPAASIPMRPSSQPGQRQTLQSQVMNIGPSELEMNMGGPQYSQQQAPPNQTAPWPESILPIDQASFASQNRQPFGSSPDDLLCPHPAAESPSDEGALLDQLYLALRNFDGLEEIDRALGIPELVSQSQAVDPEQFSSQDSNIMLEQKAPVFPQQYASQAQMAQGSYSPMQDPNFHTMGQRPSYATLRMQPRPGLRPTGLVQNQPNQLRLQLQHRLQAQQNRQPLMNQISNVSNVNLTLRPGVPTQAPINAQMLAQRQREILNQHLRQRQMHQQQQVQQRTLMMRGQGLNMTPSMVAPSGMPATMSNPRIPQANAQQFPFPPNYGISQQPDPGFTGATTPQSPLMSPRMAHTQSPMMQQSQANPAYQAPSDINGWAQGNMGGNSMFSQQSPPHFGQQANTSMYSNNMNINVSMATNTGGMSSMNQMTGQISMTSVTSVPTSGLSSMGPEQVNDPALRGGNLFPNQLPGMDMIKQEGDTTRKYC", "assay_type": "functional"}, "SUMO-activating enzyme [14]": {"biological_target": "T7, SUMO-activating enzyme (Homo sapiens, UniProt Q9UBT2)", "T7 sequence (Q9UBE0 whole entry)": "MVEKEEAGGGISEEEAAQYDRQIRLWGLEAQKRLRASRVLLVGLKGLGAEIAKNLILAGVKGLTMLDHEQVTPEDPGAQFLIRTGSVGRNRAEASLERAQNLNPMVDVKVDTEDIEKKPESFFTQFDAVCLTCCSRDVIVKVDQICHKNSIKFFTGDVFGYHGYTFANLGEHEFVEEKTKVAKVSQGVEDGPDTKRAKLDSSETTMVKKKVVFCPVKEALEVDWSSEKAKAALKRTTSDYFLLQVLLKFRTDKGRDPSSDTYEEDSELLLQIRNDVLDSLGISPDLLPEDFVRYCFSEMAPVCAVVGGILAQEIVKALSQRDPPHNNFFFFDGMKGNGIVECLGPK", "T7 sequence (Q9UBT2 whole entry)": "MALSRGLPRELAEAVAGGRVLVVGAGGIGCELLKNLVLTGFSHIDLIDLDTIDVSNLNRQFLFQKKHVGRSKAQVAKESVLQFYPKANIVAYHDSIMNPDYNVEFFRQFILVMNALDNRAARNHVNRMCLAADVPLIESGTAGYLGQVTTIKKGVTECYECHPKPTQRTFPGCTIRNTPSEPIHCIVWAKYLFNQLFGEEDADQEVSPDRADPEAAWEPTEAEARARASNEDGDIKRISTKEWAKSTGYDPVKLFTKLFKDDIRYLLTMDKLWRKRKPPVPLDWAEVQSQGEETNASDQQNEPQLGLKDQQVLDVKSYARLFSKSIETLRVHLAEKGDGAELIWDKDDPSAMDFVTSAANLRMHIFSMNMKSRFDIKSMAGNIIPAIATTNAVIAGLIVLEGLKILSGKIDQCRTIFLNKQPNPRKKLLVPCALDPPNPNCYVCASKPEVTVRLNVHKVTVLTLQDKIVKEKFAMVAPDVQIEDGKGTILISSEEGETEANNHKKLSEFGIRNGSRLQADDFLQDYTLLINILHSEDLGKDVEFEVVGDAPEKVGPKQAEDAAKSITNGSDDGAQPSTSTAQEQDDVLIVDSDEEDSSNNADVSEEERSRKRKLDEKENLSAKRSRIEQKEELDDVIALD", "assay": "SUMOylation inhibitor hit validation, confirmation, SUMOylation inhibitor project, biochemical, AlphaScreen (AID 2018)", "assay_type": "functional"}, "[15]": {"assay": "growth suppression of beta-catenin-knockout colon cells, dose response, cell-based, HCT116, human colon tumor (AID 1045);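 also: cells exposed to compound for 60 hours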", "assay_type": "functional"}, "[16]": {"biological_target": "T6, Low molecular weight phosphotyrosine protein phosphatase", "assay_type": "functional", "settings": "read-out: IC50_Mean", "remark": "listed apart in the source"}, "SUMO-activating enzyme [17]": {"biological_target": "T7, SUMO-activating enzyme", "assay": "inhibitors of in vitro SUMOylation cascade, primary screen, biochemical, HTRF, uHTS (AID 2006)", "assay_type": "protein-complex assay"}, "Beta-lactamase [18]": {"biological_target": "Beta-lactamase (Pseudomonas aeruginosa, UniProt Q79MP6)", "sequence (Q79MP6 whole entry)": "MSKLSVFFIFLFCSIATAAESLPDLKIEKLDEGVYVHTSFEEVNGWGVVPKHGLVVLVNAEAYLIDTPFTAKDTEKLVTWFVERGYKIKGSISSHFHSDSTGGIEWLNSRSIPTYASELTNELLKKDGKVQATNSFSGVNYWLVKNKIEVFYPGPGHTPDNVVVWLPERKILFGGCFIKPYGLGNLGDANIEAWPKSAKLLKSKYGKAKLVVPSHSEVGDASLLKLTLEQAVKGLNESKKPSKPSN"}, "Beta-lactamase [19]": {"biological_target": "Beta-lactamase (Salmonella choleraesuis (strain SC-B67), UniProt Q5J463)", "sequence (Q5J463 whole entry)": "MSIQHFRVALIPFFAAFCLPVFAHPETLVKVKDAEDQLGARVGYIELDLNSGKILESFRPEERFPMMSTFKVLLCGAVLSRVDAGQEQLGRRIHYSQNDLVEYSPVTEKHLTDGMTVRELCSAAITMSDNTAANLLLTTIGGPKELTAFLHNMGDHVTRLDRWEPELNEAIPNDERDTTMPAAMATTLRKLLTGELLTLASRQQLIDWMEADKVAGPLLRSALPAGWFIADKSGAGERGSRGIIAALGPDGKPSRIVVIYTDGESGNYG"}, "H9c2": {"system": "H9c2", "assay": "cells", "assay_type": "functional, cell-based", "settings": "Rattus norvegicus, H9c2, Myocardium"}}, "note": "The source made the active and inactive calls."}
{"smiles": "Cc1cccc(NC(=O)CSc2nc3n[nH]cc3c(=O)[nH]2)c1C", "values": [{"measurement": "EC50", "setting": "[1]", "result": "> 53 µM (inactive)"}, {"measurement": "IC50", "setting": "[2]", "result": "> 47.1 µM (inactive)"}, {"measurement": "IC50", "setting": "[3]", "result": "6.29 µM (active)"}, {"measurement": "IC50", "setting": "Steroidogenic factor 1", "result": "2.59 µM (active)"}, {"measurement": "IC50", "setting": "Leucine aminopeptidase", "result": "4.46 µM (active)"}]}
{"smiles": "O=[N+]([O-])c1ccc(N2CCN(S(=O)(=O)c3ccccc3)CC2)cc1NCc1cccnc1", "values": [{"measurement": "IC50", "setting": "[4]", "result": "35.9 µM (inactive)"}, {"measurement": "IC50", "setting": "[3]", "result": "14.8 µM (inactive)"}, {"measurement": "IC50", "setting": "Steroidogenic factor 1", "result": "5.39 µM (active)"}]}
{"smiles": "CCOc1ccc(NS(=O)(=O)c2ccc(Cl)c(NN=C3C(=O)NC(=S)NC3=O)c2)cc1Br", "values": [{"measurement": "IC50", "setting": "[5]", "result": "5.55 µM (active)"}, {"measurement": "IC50", "setting": "[6]", "result": "55 µM (active)"}, {"measurement": "IC50", "setting": "Genome polyprotein", "result": "44.1 µM (active)"}]}
{"smiles": "CCOC(=O)Cn1/c(=N/C(=O)c2sc3ccccc3c2Cl)sc2cc(S(N)(=O)=O)ccc21", "values": [{"measurement": "EC50", "setting": "[7]", "result": "14.3 µM (not active)"}, {"measurement": "IC50", "setting": "[8]", "result": "52.2 µM (inactive)"}, {"measurement": "EC50", "setting": "[9]", "result": "72.5 µM (active)"}, {"measurement": "IC50", "setting": "[10]", "result": "2.06 µM (active)"}, {"measurement": "IC50", "setting": "[11]", "result": "16.4 µM (active)"}, {"measurement": "EC50", "setting": "[12]", "result": "11.3 µM (not active)"}, {"measurement": "EC50", "setting": "[13]", "result": "7.96 µM (active)"}, {"measurement": "IC50", "setting": "SUMO-activating enzyme [14]", "result": "11.8 µM (active)"}, {"measurement": "EC50", "setting": "[15]", "result": "46.4 µM (active)"}, {"measurement": "IC50", "setting": "[16]", "result": "27.7 µM (inactive)"}, {"measurement": "IC50", "setting": "SUMO-activating enzyme [17]", "result": "4.97 µM (active)"}]}
{"smiles": "O=C(Nc1ccc2oc(-c3ccccc3F)nc2c1)c1ccc([N+](=O)[O-])o1", "values": [{"measurement": "IC50", "setting": "[8]", "result": "7.64 µM (active)"}, {"measurement": "IC50", "setting": "Beta-lactamase [18]", "result": "> 59.6 µM (inactive)"}, {"measurement": "IC50", "setting": "[10]", "result": "1.23 µM (active)"}, {"measurement": "IC50", "setting": "[11]", "result": "3.79 µM (active)"}, {"measurement": "IC50", "setting": "Beta-lactamase [19]", "result": "> 59.6 µM (inactive)"}, {"measurement": "IC50", "setting": "[16]", "result": "3.72 µM (active)"}, {"measurement": "IC50", "setting": "H9c2", "result": "> 79 µM (inactive)"}]}
